Data published in US20220348651A1, “ENTPD2 ANTIBODIES, COMBINATION THERAPIES, AND METHODS OF USING THE ANTIBODIES AND COMBINATION THERAPIES” (Novartis AG, priority 2019, published 2022).

Tested on: human ENTPD2 engineered B16LM3 clone B5
Test: Human ENTPD2 engineered B16LM3 clone B5 model, combination with A2AR antagonist NIR178
Format: in vivo
Conditions: NIR178 50 or 200 mg/kg p.o. 4 days on, 3 days off, combined with non-specific isotype control
Protocol: Human ENTPD2-engineered B16LM3 clone B5 was established in female C57BL/6 mice by subcutaneous injection of 0.5×10^6 cells into the right flank of each mouse. Once tumors reached approximately 50 mm^3, mice were randomized according to tumor volume into treatment groups (n=8 per group). Mice received an intravenous (i.v.) treatment of either anti-ENTPD2 mAb1 at a final dose of 10/mg/kg or a non-specific human IgG1 isotype control 10 mg/kg on day 1 of study. NIR178 was administered per os (p.o.) for 4 days on and 3 days off, starting at the beginning of study at either 50 mg/kg or 200 mg/kg. All doses were adjusted to individual mouse body weights. The study was carried out for thirteen days post treatment initiation and tumor volumes were assessed every other day to assess efficacy.

Nc1nc(-n2cccn2)nc(-n2cccn2)c1Br [NIR178, 5-bromo-2,6-di-(1H-pyrazol-1-yl)pyrimidine-4-amine, reference compound]
anti-tumor efficacy: No significant anti-tumor efficacy
